Reference: ChEMBL document CHEMBL3763048, “Design and discovery of 3-aryl-5-substituted-isoquinolin-1-ones as potent tankyrase inhibitors” (Medchemcomm, 2015)
Activity calls are given as the source filed them. The calls are words filed in the database; no cut-off is given here.

Experiments:
[1] = Aqueous solubility of the compound in phosphate buffer at pH 7.4; format: physicochemical
[2] = Intrinsic clearance in mouse liver microsomes assessed per mg of protein; format: ADME; settings: read-out: CLH
[3] = Intrinsic clearance in human liver microsomes assessed per mg of protein; format: ADME; settings: read-out: CLH
[4] = test system: SW480; test: Induction of cellular DNA damage PARylation in human SW480 cells at >100 uM by Western blot analysis; format: functional, cell-based

COc1cccc2c(=O)[nH]c(-c3ccc(CN(C)C)cc3)cc12
solubility [1]: > 100 µM

Cc1cccc2c(=O)[nH]c(-c3ccc(CN4CCC(N(C)C)CC4)cc3)cc12
solubility [1]: > 100 µM | microsomal CLint [2]: 10 µL/min/mg | microsomal CLint [3]: 5 µL/min/mg | Activity [4]: Active

CN(C)Cc1ccc(-c2cc3ccccc3c(=O)[nH]2)cc1
solubility [1]: > 100 µM
